As usually defined, the IC50 is the concentration needed to halve the response being measured.

Like-named read-outs stand apart in the source and are kept apart here. Where only a bound is given, the exact number is not on record here.

Format in all cases: cell-based
The test system of assay [1] is SW-480 (human colon cancer cells). Put plainly: MTT inhibition of tumor cell growth, SW-480. The protocol: (§1) 1. Inoculating cells: the culture medium DMEM or RMPI1640 containing 10% fetal bovine serum was used to prepare a single cell suspension, and the cell suspension was inoculated to a 96-well plate at 5000-10000 cells per well (100 μl for each well); Adherent cells were inoculated and cultured for 12 h in advance. HL-60 (human promyelocytic leukemia cells), SMMC-7721 (human hepatoma cells), A-549 (Human lung adenocarcinoma cells), MCF-7 (human breast cancer cells), SW-480 (human colon cancer cells) were purchased from the Cell Bank of the Chinese Academy of Sciences, Shanghai.
(§2) 2. The solution of the compound to be tested (40 μM for primary screening; 5 concentrations were set for gradient re-screening for the compounds which achieve about 50% inhibition of tumor cell growth at 40 μM) was added, the final volume of each well was 200 μl, and triplicate wells were set for each test.
(§3) 3. Coloration: After culturing at 37° C. for 48 h, MTT solution (20 μl) was added to each well. After incubation for another 4 h, the culture was stopped. The supernatant in each well was pipetted and discarded, and 200 μl SDS solution (10%) was added to each well. Incubation was performed overnight (at 37° C.), to completely dissolve the crystal.
(§4) 4. Colorimetric assay: ELISA Reader (Bio-Rad 680) was used to obtain the light absorption for each well at a wavelength of 595 nm, the results were recorded. A cell growth curve was plotted with the concentration as abscissa and the cell survival percentage as ordinate. The two-point method (Reed and Muench method) was used to calculate the IC50 of the compound.

Assay [2] deals with MCF-7 (human breast cancer cells). Kind of assay: MTT inhibition of tumor cell growth, MCF-7. The protocol: as §1, §2, §3, §4
The subject of assay [3] is SMMC-7721 (human hepatoma cells). Put plainly: MTT inhibition of tumor cell growth, SMMC-7721. The protocol:
as §1, §2, §3, §4

Assay [4] has as its system A-549 (Human lung adenocarcinoma cells). Put plainly: MTT inhibition of tumor cell growth, A-549. The protocol: as §1, §2, §3, §4
Assay [5] deals with HL-60 (human promyelocytic leukemia cells). Put plainly: MTT inhibition of tumor cell growth, HL-60. The method, then: as §1, §2, §3, §4
Where [6] appears, read: Homo sapiens, SW480, 48 h, Table 6, 7-hydroxyl derivatives and controls, read-out: IC50 SW-480, 7-hydroxyl derivatives.
Setting [7] is: Homo sapiens, SW480, 48 h, Table 6, double Michael reaction acceptor derivatives, read-out: IC50 SW-480, derivatives having double Michael reaction acceptor.
Setting [8] is: Homo sapiens, MCF7, 48 h, Table 7 (first), alkaloid derivatives.
[9] abbreviates: Homo sapiens, SMMC-7721, 48 h, Table 7 (first), alkaloid derivatives.
Where [10] appears, read: Homo sapiens, SW480, 48 h, Table 7 (first), alkaloid derivatives, read-out: IC50 SW-480.
Setting [11] is: Homo sapiens, A549, 48 h, Table 7 (first), alkaloid derivatives.
Setting [12] is: Homo sapiens, HL-60, 48 h, Table 7 (first), alkaloid derivatives.
[13] abbreviates: Homo sapiens, SW480, 48 h, Table 6, 7-carbonyl derivatives, read-out: IC50 SW-480, 7-carbonyl derivatives.
[14] abbreviates: Table 1, 7-hydroxy derivatives of S-3, 48 h.
Setting [15] is: Table 2, derivatives having potential Michael reaction acceptor, 48 h.
Where [16] appears, read: Table 3, single Michael reaction acceptor, modified lactonic ring, 48 h.
The mark [17] stands for this setting: Table 4, derivatives obtained by reduction of the lactonic ring, 48 h.
Where [18] appears, read: Table 5, derivatives having double Michael reaction acceptor, 48 h.
Setting [19] is: Table 7 (first), alkaloid derivatives, 48 h.

`C=C1C(=O)C23CC[C@H]1CC2[C@]1(COC(C)=O)CCC[C@@](C)(COC(=O)c2cccs2)C1C[C@H]3O` (stereo partly drawn) [Compound 70]: the IC50 in assay [1] (setting [6]) was 1690 nM.
With `C=C1C(=O)C23CC[C@@H](CC2[C@]2(COC(=O)CC)CCC[C@@](C)(COC(=O)CC)C12)C(=C)C3=O` (stereo partly drawn) [Compound 74c], the IC50 in assay [1] (setting [7]) was determined as 330 nM.
In the case of `C=C1C(=O)[C@@]23CC[C@@H](CC2[C@@]24CCC[C@@](C)(CN(CCO[Si](C)(C)C(C)(C)C)C2)C14)C(=C)C3=O` (stereo partly drawn) [Compound 92], the concentration for half-maximal inhibition (IC50) in assay [2] (setting [8]) came to 2.9 µM; in assay [3] (setting [9]) it was 2.63 µM; in assay [1] (setting [10]) it was 2780 nM; in assay [4] (setting [11]), 1.55 µM; in assay [5] (setting [12]) it was 1390 nM.
In the case of `C=C1C(=O)C23CC[C@H]1CC2[C@]1(COC(=O)CC)CCC[C@@](C)(COC(=O)CC)C1CC3=O` (stereo partly drawn) [Compound 73c], the IC50 in assay [1] (setting [13]) stood at 690 nM.
Same read-out and setting: next, `C=C1C(=O)C23CC[C@H]1CC2[C@]1(COC(=O)c2ccccc2)CCC[C@@](C)(COC(=O)c2ccccc2)C1CC3=O` (stereo partly drawn) [Compound 73d]: 620 nM.
`C=C1C(=O)C23CC[C@H]1CC2[C@]1(COC(=O)c2ccccc2)CCC[C@@](C)(COC(=O)c2ccccc2)C1C[C@H]3O` (stereo partly drawn) [Compound 72d]: the IC50 in assay [1] (setting [6]) was determined as 520 nM.
In the case of `C=C1C(=O)C23CC[C@H]1CC2[C@]1(COC(=O)c2cccs2)CCC[C@@](C)(COC(=O)c2cccs2)C1C[C@H]3O` (stereo partly drawn) [Compound 63], the IC50 in assay [1] (setting [6]) was 2970 nM.
Turning to `[NH2][Pt]([NH2])([Cl])[Cl]` [cis-DDP, reference compound], the half-inhibitory concentration (IC50) in assay [2] (setting [14]) is 15.9 µM; in assay [2] (setting [15]), 15.9 µM; in assay [2] (setting [16]), 15.9 µM; in assay [2] (setting [17]), 15.9 µM; in assay [2] (setting [18]), 15.9 µM; in assay [2] (setting [19]) it was 17.5 µM. Also, the concentration for half-maximal inhibition (IC50) was determined as 8.86 µM in assay [3] (setting [14]); 8.86 µM in assay [3] (setting [15]); 8.86 µM in assay [3] (setting [16]); 8.86 µM in assay [3] (setting [17]); 8.86 µM in assay [3] (setting [18]); 10.2 µM in assay [3] (setting [19]). Further, the IC50 in assay [1] (Table 1, 7-hydroxy derivatives of S-3, 48 h, read-out: IC50 SW-480) stood at 16600 nM; in assay [1] (Table 2, derivatives having potential Michael reaction acceptor, 48 h, read-out: IC50 SW-480), 16600 nM; in assay [1] (Table 3, single Michael reaction acceptor, modified lactonic ring, 48 h, read-out: IC50 SW-480) it was 16600 nM; in assay [1] (Table 4, derivatives obtained by reduction of the lactonic ring, 48 h, read-out: IC50 SW-480) it was 16600 nM; in assay [1] (Table 5, derivatives having double Michael reaction acceptor, 48 h, read-out: IC50 SW-480), 16600 nM; in assay [1] (Table 6, 7-hydroxyl derivatives and controls, 48 h, read-out: IC50 SW-480, 7-hydroxyl derivatives), 11100 nM. Besides, the concentration for half-maximal inhibition (IC50) turned out to be 12000 nM in assay [1] (Table 7 (first), alkaloid derivatives, 48 h, read-out: IC50 SW-480); 11.7 µM in assay [4] (setting [14]); 11.7 µM in assay [4] (setting [15]); 11.7 µM in assay [4] (setting [16]); 11.7 µM in assay [4] (setting [17]); 11.7 µM in assay [4] (setting [18]). The concentration for half-maximal inhibition (IC50) was found to be 9.08 µM in assay [4] (setting [19]); 1810 nM in assay [5] (setting [14]); 1810 nM in assay [5] (setting [15]); 1810 nM in assay [5] (setting [16]); 1810 nM in assay [5] (setting [17]); 1810 nM in assay [5] (setting [18]). Besides, the midpoint of inhibition in assay [5] (setting [19]), the IC50, lay at 3080 nM.
Take `C=C1C(=O)[C@]23CC[C@H]1CC2[C@@]12CCC[C@@]4(C)CN(CCO)[C@@H]1O[C@@H]3CC42` (stereo partly drawn) [Compound 82]: the IC50 came out at 10.3 µM in assay [2] (Homo sapiens, MCF7, Table 7 (first), alkaloid derivatives, 48 h); 23.6 µM in assay [3] (Homo sapiens, SMMC-7721, Table 7 (first), alkaloid derivatives, 48 h); 14000 nM in assay [1] (Homo sapiens, SW480, Table 7 (first), alkaloid derivatives, 48 h, read-out: IC50 SW-480); 18.6 µM in assay [4] (Homo sapiens, A549, Table 7 (first), alkaloid derivatives, 48 h); 19300 nM in assay [5] (Homo sapiens, HL-60, Table 7 (first), alkaloid derivatives, 48 h).
Regarding `C=C1C(=O)C23CC[C@H]1CC2[C@@]12CCC[C@@](C)(COS(=O)OC1)C2CC3=O` (stereo partly drawn) [Compound 42], the IC50 in assay [1] (setting [13]) was found to be 1830 nM.
For the compound `C=C1C(=O)C23CC[C@H]1CC2[C@]1(COC(=O)CC)CCC[C@@](C)(COC(=O)CC)C1C[C@H]3O` (stereo partly drawn) [Compound 72c], in assay [1] (setting [6]), the IC50 came out at 810 nM.
For `CC(=O)O[C@H]1C(=O)[C@@]2(C)[C@H]([C@H](OC(=O)c3ccccc3)[C@]3(O)C[C@H](OC(=O)[C@H](O)[C@@H](NC(=O)c4ccccc4)c4ccccc4)C(C)=C1C3(C)C)[C@]1(OC(C)=O)CO[C@@H]1C[C@@H]2O` [TAXOL, reference compound], the IC50 was less than 0.008 µM in assay [2] (Homo sapiens, MCF7, 48 h, Table 1, 7-hydroxy derivatives of S-3); less than 0.008 µM in assay [2] (Homo sapiens, MCF7, 48 h, Table 2, derivatives having potential Michael reaction acceptor); less than 0.008 µM in assay [2] (Homo sapiens, MCF7, 48 h, Table 3, single Michael reaction acceptor, modified lactonic ring); less than 0.008 µM in assay [2] (Homo sapiens, MCF7, 48 h, Table 4, derivatives obtained by reduction of the lactonic ring); less than 0.008 µM in assay [2] (Homo sapiens, MCF7, 48 h, Table 5, derivatives having double Michael reaction acceptor); less than 0.008 µM in assay [2] (setting [8]). In addition, the IC50 in assay [3] (Homo sapiens, SMMC-7721, 48 h, Table 1, 7-hydroxy derivatives of S-3) was less than 0.008 µM; in assay [3] (Homo sapiens, SMMC-7721, 48 h, Table 2, derivatives having potential Michael reaction acceptor), less than 0.008 µM; in assay [3] (Homo sapiens, SMMC-7721, 48 h, Table 3, single Michael reaction acceptor, modified lactonic ring), less than 0.008 µM; in assay [3] (Homo sapiens, SMMC-7721, 48 h, Table 4, derivatives obtained by reduction of the lactonic ring), less than 0.008 µM; in assay [3] (Homo sapiens, SMMC-7721, 48 h, Table 5, derivatives having double Michael reaction acceptor), less than 0.008 µM; in assay [3] (setting [9]), less than 0.008 µM. Besides, the IC50 is less than 8 nM in assay [1] (Homo sapiens, SW480, 48 h, Table 1, 7-hydroxy derivatives of S-3, read-out: IC50 SW-480); less than 8 nM in assay [1] (Homo sapiens, SW480, 48 h, Table 2, derivatives having potential Michael reaction acceptor, read-out: IC50 SW-480); less than 8 nM in assay [1] (Homo sapiens, SW480, 48 h, Table 3, single Michael reaction acceptor, modified lactonic ring, read-out: IC50 SW-480); less than 8 nM in assay [1] (Homo sapiens, SW480, 48 h, Table 4, derivatives obtained by reduction of the lactonic ring, read-out: IC50 SW-480); less than 8 nM in assay [1] (Homo sapiens, SW480, 48 h, Table 5, derivatives having double Michael reaction acceptor, read-out: IC50 SW-480); less than 8 nM in assay [1] (setting [6]). Moreover, the 50% inhibitory concentration (IC50) in assay [1] (setting [10]) was less than 8 nM; in assay [4] (Homo sapiens, A549, 48 h, Table 1, 7-hydroxy derivatives of S-3) it was less than 0.008 µM; in assay [4] (Homo sapiens, A549, 48 h, Table 2, derivatives having potential Michael reaction acceptor), less than 0.008 µM; in assay [4] (Homo sapiens, A549, 48 h, Table 3, single Michael reaction acceptor, modified lactonic ring), less than 0.008 µM; in assay [4] (Homo sapiens, A549, 48 h, Table 4, derivatives obtained by reduction of the lactonic ring), less than 0.008 µM; in assay [4] (Homo sapiens, A549, 48 h, Table 5, derivatives having double Michael reaction acceptor), less than 0.008 µM. For the same compound, the half-maximal inhibitory concentration (IC50) in assay [4] (setting [11]) is less than 0.008 µM; in assay [5] (Homo sapiens, HL-60, 48 h, Table 1, 7-hydroxy derivatives of S-3), less than 8 nM; in assay [5] (Homo sapiens, HL-60, 48 h, Table 2, derivatives having potential Michael reaction acceptor), less than 8 nM; in assay [5] (Homo sapiens, HL-60, 48 h, Table 3, single Michael reaction acceptor, modified lactonic ring), less than 8 nM; in assay [5] (Homo sapiens, HL-60, 48 h, Table 4, derivatives obtained by reduction of the lactonic ring), less than 8 nM; in assay [5] (Homo sapiens, HL-60, 48 h, Table 5, derivatives having double Michael reaction acceptor), less than 8 nM. Also, the IC50 in assay [5] (setting [12]) is less than 8 nM.
With `C=C1C(=O)C23CC[C@@H](CC2[C@]2(COC(=O)c4ccccc4)CCC[C@@](C)(COC(=O)c4ccccc4)C12)C(=C)C3=O` (stereo partly drawn) [Compound 74d], the IC50 in assay [1] (setting [7]) came out at 150 nM.
